Measured values as given in the NIST ThermoML archive (doi:10.1021/acs.jced.7b00489).
Numbers after ± are expanded uncertainties.

Details: Crystal; DSC

O=C(c1cc(Cc2n[nH]c(=O)c3ccccc23)ccc1F)N1CCN(C(=O)C2CC2)CC1 [olaparib]
Triple point temperature: 471.65 ± 1.8 K
